From patent publication US20110311511A1, “CRYSTAL STRUCTURE OF PfA-M1 AND THE PfA-M1 Co4 COMPLEX” (priority 2008, published 2011)
pKi: −log10 of the molar value.

How the values were obtained:
[1] = system: recombinant P. falciparum M1 aminopeptidase (rPfA-M1); experiment: Enzymatic analysis: aminopeptidase activity with fluorogenic peptide substrates (NHMec release) and inhibition; assay type: biochemical, Plasmodium falciparum; conditions: for Km / kcat: substrate of rPfA-M1, pH 7.5
Procedure: Aminopeptidase activity was determined by measuring the release of the fluorogenic leaving group, 7-amino-4-methyl-coumarin (NHMec) from the fluorogenic peptide substrates H-Leu-NHMec, H-Ala-NHMec, H-Arg-NHMec, H-Met-NHMec, H-Phe-NHMec, H-Gly-NHMec, H-Val-NHMec, H-Ile-NHMec and H-Pro-NHMec. Reactions were carried out in 96-well microtitre plates (200 μl total volume, 30 min, 37° C.) using a spectrofluorimeter (Bio-Tek KC4) with excitation at 370 nm and emission at 460 nm. […] […] Inhibition experiments were carried out in the presence of substrate.

[2] = system: P. c. chabaudi; conditions: cited from earlier work
[3] = molecular target: T1, PfA-M17 (Plasmodium falciparum, UniProt Q8IL11); conditions: cited from earlier work
T1 sequence (Q8IL11 84-605 limits assumed): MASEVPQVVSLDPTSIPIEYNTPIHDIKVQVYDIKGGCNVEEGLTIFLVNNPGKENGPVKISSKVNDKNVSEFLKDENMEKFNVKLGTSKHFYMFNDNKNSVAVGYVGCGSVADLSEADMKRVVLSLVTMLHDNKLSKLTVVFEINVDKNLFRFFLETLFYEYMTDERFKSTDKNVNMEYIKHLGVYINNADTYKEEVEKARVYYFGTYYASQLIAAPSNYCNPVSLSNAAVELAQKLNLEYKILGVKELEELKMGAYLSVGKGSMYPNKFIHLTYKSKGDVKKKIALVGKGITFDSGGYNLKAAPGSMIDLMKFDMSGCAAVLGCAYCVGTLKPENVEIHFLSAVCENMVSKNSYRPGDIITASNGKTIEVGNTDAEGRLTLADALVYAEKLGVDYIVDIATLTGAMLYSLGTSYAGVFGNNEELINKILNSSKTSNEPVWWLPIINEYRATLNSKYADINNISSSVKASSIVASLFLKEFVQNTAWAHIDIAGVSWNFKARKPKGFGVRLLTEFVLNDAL

Row | Molecule | Km [1] [µM] | kcat [1] [s⁻¹] | pKi ([1]; inhibition of rPfA-M1, in the presence of substrate) | reduction of murine infection of P. c. chabaudi compared to controls [2] [%] | inhibition of PfA-M17 [3]
1 | CCC(C)C(N)C(=O)Nc1ccc2c(C)cc(=O)oc2c1 (stereo not shown) [H-Ile-NHmec] | 1710 | 0.040 | – | – | –
2 | H-Leu-NHmec | 330 | 1.52 | – | – | –
3 | H-Gly-NHmec | 349 | 0.116 | – | – | –
4 | NC(CCc1ccccc1)P(=O)(O)CC(Cc1ccccc1)C(=O)O (stereo not shown) [Co4, hPheP[CH2]Phe] | – | – | 7.11 | 92 | inhibits
5 | H-Arg-NHmec | 717 | 1.07 | – | – | –
6 | H-Phe-NHmec | 195 | 0.18 | – | – | –
7 | Cc1cc(=O)oc2cc(NC(=O)[C@@H]3CCCN3)ccc12 [H-Pro-NHmec] | 734 | 0.0032 | – | – | –
8 | H-Ala-NHmec | 889 | 2.04 | – | – | –
9 | Cc1cc(=O)oc2cc(NC(=O)[C@@H](N)C(C)C)ccc12 [H-Val-NHmec] | 1070 | 0.036 | – | – | –
